Publication PMC6770006, “Novel Heat Shock Protein 90 Inhibitors Suppress P-Glycoprotein Activity and Overcome Multidrug Resistance in Cancer Cells” (International Journal of Molecular Sciences, 2019)

Tests used:
NCI-H460 cells = test: MTT assay, cell growth inhibition, NCI-H460; type: cell-based; conditions: Homo sapiens, 72 h, three independent experiments
Description: (§1) A series of 3-aryl-naphtho[2,3-d]isoxazole-4,9-diones were synthesized (Scheme 1, Figure 1) and their growth inhibition activity was tested in vitro on human non-small cell lung carcinoma NCI-H460, colorectal carcinoma DLD1 and their corresponding MDR cells (NCI-H460/R and DLD1-TxR, respectively), as well as normal embryonic lung fibroblasts MRC-5. The differences in cell growth inhibition between cancer and normal cells obtained by the MTT assay after 72 h treatment are presented in Table 1. The effect of compounds is presented as IC50 values that correspond to the 50% of cell growth inhibition.
(§2) Cell viability was assessed by the MTT assay (AppliChem GmbH, Darmstadt, Germany). Cells grown in 25 cm^2 tissue flasks were trypsinized and 1000 cells/well were seeded into flat-bottomed 96-well tissue culture plates and incubated overnight. Subsequently, the cells were treated with increasing concentrations of Hsp90 inhibitors for 72 h: compound 3 (0.1–2.5 µM), compound 4 (0.25–5 µM), compound 5 (0.5–25 µM), compound 6 (50–1000 nM), compound 7 (10–250 nM), compound 8 (0.25–5 µM), compound 9 (10–250 nM), compound 10 (0.5–25 µM), compound 13 (0.5–10 µM), compound 14 (1–25 µM), and compound 15 (10–250 nM). […] After treatment, MTT was added to each well in a final concentration of 0.2 mg/mL for 4 h. Formazan product was dissolved in 200 µl of DMSO, and the absorbance was measured at 540 nm using an automatic LKB 5060-006 Micro Plate Reader (Vienna, Austria). IC50 value was defined as a concentration of the drug that inhibited cell growth by 50% and was calculated by nonlinear regression analysis using GraphPad Prism 6.0 for Windows (La Jolla, CA, USA). Relative selectivity towards cancer cells was calculated as a relation between IC50 value obtained in MRC-5 cells and an average IC50 value from four tested cancer cell lines.

MRC-5 cells = test: MTT assay, normal embryonic lung fibroblasts MRC-5; type: cell-based, human; conditions: for IC50: Homo sapiens, MRC5, MTT, 72 h, normal fibroblasts, read-out: Cell growth inhibition IC50, MRC-5; for Relative Selectivity: IC50 in MRC-5 cells / average IC50 of four cancer cell lines
Description: as §1, §2

P-gp expression = test: Flow cytometric analysis of P-gp expression; type: cell-based, human; conditions: 72 h; for Change in P-gp expression, DLD1 / Change in P-gp expression, NCI-H460: 5 µM 5, 200 nM 7, 100 nM 9, 10 nM TQ, 50 nM DOX, 50 nM PTX
Description: P-glycoprotein expression level in NCI-H460, NCI-H460/R, DLD1, and DLD1-TxR and cells was measured by flow cytometry. All cell lines were seeded in adherent 6-well plates and treated with Hsp90 inhibitors for 72 h at the following concentrations: 5 µM compound 5, 200 nM compound 7, 100 nM compound 9 (NCI-H460 and DLD1), and 10 µM compound 5, 500 nM compound 7, 500 nM compound 9 (NCI-H460/R and DLD1-TxR). Cells were also treated with 10 nM TQ, a non-competitive P-gp inhibitor, which served as a positive control. In addition, sensitive cells (NCI-H460 and DLD1) were treated with 50 nM DOX and 50 nM PTX that served as positive controls for the induction of P-gp expression. Then, cells were collected by trypsinization, washed with PBS, and directly immunostained by FITC-conjugated anti-P-gp antibody according to the manufacturer’s protocol. The samples were kept in the dark until the analysis on CyFlow Space Partec flow cytometer (Sysmex Partec GmbH, Görlitz, Germany). The fluorescence of FITC-conjugated anti-P-gp was detected on fluorescence channel 1 (FL1-H) at 530 nm. A minimum of 10,000 events were collected for each sample (the gate excluded cell debris and dead cells) and the obtained results were analyzed with Summit software v4.3 (Dako Colorado Inc., Fort Collins, CO, USA).

Hsp90 = system: Hsp90; parameters: method as in PMID 22538015; conditions: read-out: Hsp90 Affinity binding; cited from earlier work
NCI-H460/R cells = test: Combined treatment of compound 5 with DOX, MTT, median effect analysis; type: cell-based, human; conditions: for Relative Reversal: DOX resistance; for IC50: Homo sapiens, NCI-H460, 72 h
Description: (§3) The combined effects of compound 5 with DOX as well as with PTX were studied in NCI-H460/R and DLD1-TxR cells, respectively, by MTT assay. In simultaneous treatments that lasted 72 h in NCI-H460/R cells, three concentrations of compound 5 (2.5, 5, and 10 µM) were combined with increasing concentrations of DOX (250, 500 and 1000 nM), while in DLD1-TxR cells different concentrations of compound 5 (1, 2.5, and 5 µM) were combined with increasing concentrations of PTX (100, 250 and 500 nM). The nature of the interaction between Hsp90 inhibitors and DOX/PTX was analyzed with CalcuSyn software v1.1 (Biosoft, Cambridge, UK) that uses the Combination Index method based on the multiple drug effect equation [54]. Three data points were used for each single drug in each experiment. The non-constant ratio combination was chosen to assess the effect of both drugs in combination. The results are presented in a fraction-affected CI graph. Values of CI < 1 point to a pronounced additive effect or synergism (the smaller value, the greater the degree of synergy). A value of CI = 1 indicates an additive effect, while values of CI > 1 point to an antagonistic effect.

DLD1-TxR cells = test: Combined treatment of compound 5 with PTX, MTT, median effect analysis; type: cell-based, human; conditions: PTX resistance
Description: as §3

| IC50 (NCI-H460 cells) [nM] | IC50 (NCI-H460/R cells; DOX + 2.5 µM compound 5, 72 h) [nM] | IC50 (NCI-H460/R cells; DOX + 5 µM compound 5, 72 h) [nM] | IC50 (NCI-H460/R cells; DOX + 10 µM compound 5, 72 h) [nM] | Compound | IC50 (MRC-5 cells) [nM] | Relative Selectivity (MRC-5 cells) | Change in P-gp expression, DLD1 (P-gp expression) | Change in P-gp expression, NCI-H460 (P-gp expression) | IC50 (Hsp90) [nM] | Change in P-gp expression, NCI-H460/R (P-gp expression; 10 µM 5, 500 nM 7, 500 nM 9, 10 nM TQ) | Relative Reversal (NCI-H460/R cells; 2.5 µM compound 5) | Relative Reversal (NCI-H460/R cells; 5 µM compound 5) | Relative Reversal (NCI-H460/R cells; 10 µM compound 5) | Relative Reversal (DLD1-TxR cells; 1 µM compound 5) | Relative Reversal (DLD1-TxR cells; 2.5 µM compound 5) | Relative Reversal (DLD1-TxR cells; 5 µM compound 5) |
| --- | --- | --- | --- | --- | --- | --- | --- | --- | --- | --- | --- | --- | --- | --- | --- | --- |
| 96 ± 2 |  |  |  | O=C1c2ccccc2C(=O)c2c(-c3cccnc3)noc21 [Compound 9] | 302 ± 8 | 3.33 | did not change P-gp expression | did not change P-gp expression | 540 |  |  |  |  |  |  |  |
| 199 ± 5 |  |  |  | O=C1c2ccccc2C(=O)c2c(-c3ccncc3)noc21 [Compound 7] | 599 ± 15 | 3.31 | did not change P-gp expression | did not change P-gp expression | 390 |  |  |  |  |  |  |  |
| 5720 ± 73 | 1730 ± 30.9 | 864 ± 25.6 | 429 ± 13.3 | O=C1c2ccccc2C(=O)c2c(-c3ccccc3O)noc21 [Compound 5] | 128000 ± 39000 | 10.64 | did not change P-gp expression | did not change P-gp expression | 1550 | significantly increased P-gp expression | 1.31 | 2.62 | 5.28 | 1.80 | 2.60 | 5.27 |
